Assay results reported in patent publication US11639353B2, “Cyclobutanes- and azetidine-containing mono and spirocyclic compounds as αV integrin inhibitors” (BRISTOL-MYERS SQUIBB COMPANY, priority 2016, dated 2023).
Counter-ions that a name gives are not always drawn.

target: T1, human αVβ6 (Homo sapiens, UniProt P06756+P18564); experiment: human αVβ6 HTRF binding assay; settings: alternatively SPA-based assay
T1 construct: purchased R & D systems 3817-AV
Protocol: All binding assays used the HTRF (homogeneous time resolved fluorescence) technology from Cisbio International, therefore all assays are described as HTRF binding assays. The assay results for the Examples are listed above together with the characterization data. The HTRF binding assays are established for the following integrins: human αVβ6, human αVβ1, human αVβ3, human αVβ5, and human αVβ8. All assays used the following assay buffer: 20 mM Tris, pH 7.4, 1 mM MgCl2, 1 mM MnCl2, 0.01% Tween 20, and 0.01% BSA. Alternatively, a SPA-based assay was used for evaluation of receptor binding.
The following describes the components and a representative procedure for the human αVβ6 HTRF binding assay: Recombinant human αVβ6 Integrin (R & D systems, 3817-AV) was biotinylated. Biotinylated human αVβ6 Integrin was added to assay vessel at a final concentration of 1.25 nM. FITC-conjugated fibronectin (Cytoskeleton, FNR02) was then added at the final concentration of 5 nM. The mixture was centrifuged at 600 rpm for three minutes using Thermo Fisher Heraeus Multifuge X3 centrifuge and then incubated at RT for an hour. Streptavidin Terbium (Cisbio international 610STLB) was then added at the final concentration of 0.625 nM. The resulting mixture was centrifuged at 600 rpm for three minutes using Thermo Fisher Heraeus Multifuge X3 centrifuge and then incubated at room temperature overnight in dark before reading HTRF signals.
The SPA-based assay was carried out according to the protocol and procedures similar to the ones described in the following reference with appropriate modifications to agents and ligands which are readily understood by one skilled in the art: Pachter J A, Zhang R, Mayer-Ezell R., “Scintillation proximity assay to measure binding of soluble fibronectin to antibody-captured αVβ1 integrin” Anal Biochem. 1995 Sep. 1; 230(1):101-7.

T1 sequence (P06756 31-992 limits assumed): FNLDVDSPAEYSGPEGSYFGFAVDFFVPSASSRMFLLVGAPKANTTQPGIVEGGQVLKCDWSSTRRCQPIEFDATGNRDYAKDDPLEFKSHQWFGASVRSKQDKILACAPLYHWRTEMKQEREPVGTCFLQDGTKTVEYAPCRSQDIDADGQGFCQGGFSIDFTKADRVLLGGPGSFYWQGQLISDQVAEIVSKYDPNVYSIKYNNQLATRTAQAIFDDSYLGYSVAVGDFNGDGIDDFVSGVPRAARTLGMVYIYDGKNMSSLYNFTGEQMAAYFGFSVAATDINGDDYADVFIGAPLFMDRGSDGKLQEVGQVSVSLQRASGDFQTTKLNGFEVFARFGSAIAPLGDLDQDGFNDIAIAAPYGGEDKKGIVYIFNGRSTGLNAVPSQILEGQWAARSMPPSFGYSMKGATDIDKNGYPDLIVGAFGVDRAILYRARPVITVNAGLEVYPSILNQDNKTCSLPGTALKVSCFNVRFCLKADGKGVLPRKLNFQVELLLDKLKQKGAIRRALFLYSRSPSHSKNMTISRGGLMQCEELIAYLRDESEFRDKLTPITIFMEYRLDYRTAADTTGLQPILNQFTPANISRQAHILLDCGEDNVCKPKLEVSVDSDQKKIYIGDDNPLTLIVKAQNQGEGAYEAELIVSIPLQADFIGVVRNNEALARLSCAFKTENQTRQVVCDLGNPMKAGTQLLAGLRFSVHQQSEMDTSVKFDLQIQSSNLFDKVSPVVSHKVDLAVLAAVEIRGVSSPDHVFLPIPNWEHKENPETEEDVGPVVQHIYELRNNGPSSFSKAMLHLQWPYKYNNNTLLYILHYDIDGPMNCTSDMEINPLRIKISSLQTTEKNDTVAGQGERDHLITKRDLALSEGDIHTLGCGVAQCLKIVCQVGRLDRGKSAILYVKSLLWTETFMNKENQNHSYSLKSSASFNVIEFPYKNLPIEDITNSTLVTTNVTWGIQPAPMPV
T1 sequence (P18564 22-707 limits assumed): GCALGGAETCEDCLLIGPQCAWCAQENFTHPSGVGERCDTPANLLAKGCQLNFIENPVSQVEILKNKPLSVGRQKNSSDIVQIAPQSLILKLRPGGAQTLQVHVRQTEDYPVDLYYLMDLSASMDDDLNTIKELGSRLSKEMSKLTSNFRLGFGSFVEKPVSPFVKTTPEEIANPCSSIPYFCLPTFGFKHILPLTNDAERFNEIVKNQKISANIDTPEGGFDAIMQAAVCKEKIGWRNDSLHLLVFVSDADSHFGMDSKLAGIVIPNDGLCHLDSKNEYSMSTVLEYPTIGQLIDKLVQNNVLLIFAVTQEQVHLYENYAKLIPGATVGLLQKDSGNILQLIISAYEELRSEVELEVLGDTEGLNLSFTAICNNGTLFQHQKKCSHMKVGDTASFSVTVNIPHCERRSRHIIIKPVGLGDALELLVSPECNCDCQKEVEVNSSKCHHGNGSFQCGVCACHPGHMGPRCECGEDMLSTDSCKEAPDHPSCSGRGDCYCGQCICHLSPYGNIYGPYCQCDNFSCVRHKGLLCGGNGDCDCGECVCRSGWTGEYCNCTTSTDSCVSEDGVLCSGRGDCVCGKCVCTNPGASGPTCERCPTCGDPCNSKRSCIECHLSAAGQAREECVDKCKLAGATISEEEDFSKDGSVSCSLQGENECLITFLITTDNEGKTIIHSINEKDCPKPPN

SMILES	IC50
CCOC(=O)C[C@H](NC(=O)C1CN(CCc2ccc3c(n2)NCCC3)C1)c1ccc(OC)nc1 [Example 48]	400 nM
COc1ccc(C(CC(=O)O)C2CC(CCCCc3ccc4c(n3)NCCC4)C2)cn1 (single isomer, unassigned; diastereomer b) [Example 140, 3-(6-Methoxypyridin-3-yl)-3-(3-(4-(5,6,7,8-tetrahydro-1,8-naphthyridin-2-yl)butyl)cyclobutyl)propanoic acid (Diastereomer B)]	7.7 nM
Cc1ncc(C(CC(=O)O)N2CC(OCCCc3ccc4c(n3)NCCC4)C2)cn1 (stereo not drawn) [Example 130, 3-(2-methylpyrimidin-5-yl)-3-(3-(3-(5,6,7,8-tetrahydro-1,8-naphthyridin-2-yl)propoxy)azetidin-1-yl)propanoic acid, 2 TFA]	8.2 nM
COc1ccc(C(CC(=O)O)C2CC(NCCCc3ccc4c(n3)NCCC4)C2)cc1F (stereo not drawn) [Example 126]	4.18 nM
COc1ccc([C@H](CC(=O)O)N2CC(CCCc3ccc4c(n3)NCCC4)C2)cc1F [Example 168, (S)-3-(3-Fluoro-4-methoxyphenyl)-3-(3-(3-(5,6,7,8-tetrahydro-1,8-naphthyridin-2-yl)propyl)azetidin-1-yl)propanoic acid]	2 nM
Cc1ncc(C(CC(=O)O)N2CC(COCCc3ccc4c(n3)NCCC4)C2)cn1 (stereo not drawn) [Example 127, 3-(2-methylpyrimidin-5-yl)-3-(3-((2-(5,6,7,8-tetrahydro-1,8-naphthyridin-2-yl)ethoxy)methyl)azetidin-1-yl)propanoic acid, 2 TFA]	7.9 nM
O=C(O)C[C@@H](c1cc(F)cc(F)c1)N1CC(CCCCc2ccc3c(n2)NCCC3)C1=O (stereo partly drawn) [Example 71]	1.5 nM

More lines, now with the values ahead:

IC50	SMILES
2.2 nM	O=C(O)C[C@@H](c1cnc2ccccc2c1)N1CC(F)(CCCCc2ccc3c(n2)NCCC3)C1 [Example 166]
130 nM	COc1ccc([C@H](CC(=O)O)NC(=O)C2CC3(C2)CN(CCCc2ccc4c(n2)NCCC4)C3)cn1 [Example 32]
3.6 nM	COc1ccc([C@H](CC(=O)O)NC2CN(CCc3ccc4c(n3)NCCC4)C2)cn1 [Example 12, (S)-3-(6-Methoxypyridin-3-yl)-3-((1-(2-(5,6,7,8-tetrahydro-1,8-naphthyridin-2-yl)ethyl)azetidin-3-yl)amino)propanoic acid]
21 nM	O=C(O)C[C@H](NC(=O)C1CC2(C1)CN(CCCc1ccc3c(n1)NCCC3)C2)c1cc(Cl)cc(Cl)c1 [Example 3, (S)-3-(3,5-Dichlorophenyl)-3-(2-(3-(5,6,7,8-tetrahydro-1,8-naphthyridin-2-yl)propyl)-2-azaspiro[3.3]heptane-6-carboxamido)propanoic acid]
2 nM	O=C(N[C@@H](CCN1CC2(CC(CCc3ccc4c(n3)NCCC4)C2)C1)C(=O)O)OCc1ccccc1 [Example 8, (S)-2-(((Benzyloxy)carbonyl)amino)-4-(6-(2-(5,6,7,8-tetrahydro-1,8-naphthyridin-2-yl)ethyl)-2-azaspiro[3.3]heptan-2-yl)butanoic acid]
490 nM	COC(Cc1ccc2c(n1)NCCC2)C1CN(C(=O)C[C@H](NC(=O)OCc2ccccc2)C(=O)O)C1 (stereo partly drawn) [Example 24, (2S)-2-(((Benzyloxy)carbonyl)amino)-4-(3-(1-methoxy-2-(5,6,7,8-tetrahydro-1,8-naphthyridin-2-yl)ethyl)azetidin-1-yl)-4-oxobutanoic acid]
13 nM	CCOC(=O)[C@H](CNC(=O)[C@H]1C[C@@H](Cc2ccc3c(n2)NCCC3)C1)NC(=O)OCc1ccccc1 [Example 195, Ethyl (S)-2-(((benzyloxy)carbonyl)amino)-3-(cis-3-((5,6,7,8-tetrahydro-1,8-naphthyridin-2-yl)methyl)cyclobutane-1-carboxamido)propanoate]
230 nM	COc1ccc([C@@H](CC(=O)O)C2(F)CN(C(=O)CCCc3ccc4c(n3)NCCC4)C2)cc1F [Example 95]
